The supplement of paper PMC10307832

What was measured:
Test in all cases: relative viability (nuclei count vs DMSO), 5 days (fraction); higher = more cells survive
[1] = compound: CCOC1=CC=CC=C1N=NC2=C(NN(C2=O)C3=NC(=CS3)C4=CC=CC=C4)C [BAM7] + Cc1nc(NC(=O)N2CCC[C@H]2C(N)=O)sc1-c1ccnc(C(C)(C)C(F)(F)F)c1 [Alpelisib] (partner 2 µM)
In short: (§1)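 Relative viability was taken as the ratio of nuclei in treated wells to nuclei in vehicle wells. Lung cancer cell lines in 1536-well plates received compounds by pin tool one day after seeding, either one drug alone or a fixed anchor-drug dose plus five library-drug doses (not always all listed) in √10 steps. Nuclei were counted on 4× images after 5 days of treatment, and values are medians of duplicate plates.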

[2] = compound: CCn1c(-c2nonc2N)nc2c(C#CC(C)(C)O)ncc(OC[C@H]3CCCNC3)c21 + C[C@@H](Oc1cc(-c2cnn(C3CCNCC3)c2)cnc1N)c1c(Cl)ccc(F)c1Cl [Crizotinib] (partner 1 µM)
In short: as §1

[3] = compound: CCn1c(-c2nonc2N)nc2c(C#CC(C)(C)O)ncc(OC[C@H]3CCCNC3)c21 + COc1cc2c(Oc3ccc(NC(=O)C4(C(=O)Nc5ccc(F)cc5)CC4)cc3F)ccnc2cc1OCCCN1CCOCC1 [Foretinib] (partner 0.25 µM)
In short: as §1

[4] = compound: CCOC1=CC=CC=C1N=NC2=C(NN(C2=O)C3=NC(=CS3)C4=CC=CC=C4)C [BAM7] + Cc1nc(Nc2ncc(C(=O)Nc3c(C)cccc3Cl)s2)cc(N2CCN(CCO)CC2)n1 [Dasatinib] (partner 0.075 µM)
In short: as §1

Row | Cell Line | relative viability ([1]; first compound 0.5 µM) | relative viability ([1]; first compound 5 µM) | relative viability ([1]; first compound 15.81 µM) | relative viability ([1]; first compound 50 µM) | relative viability ([2]; first compound 0.01 µM) | relative viability ([2]; first compound 0.03162 µM) | relative viability ([2]; first compound 0.1 µM) | relative viability ([2]; first compound 0.3162 µM) | relative viability ([2]; first compound 1 µM) | relative viability ([3]; first compound 0.01 µM) | relative viability ([3]; first compound 0.1 µM) | relative viability ([3]; first compound 0.3162 µM) | relative viability ([3]; first compound 1 µM) | relative viability ([4]; first compound 0.5 µM) | relative viability ([4]; first compound 5 µM) | relative viability ([4]; first compound 15.81 µM) | relative viability ([4]; first compound 50 µM) | relative viability ([3]; first compound 0.03162 µM)
1 | 201T | 1.05 | 1.05 | 0.825 | 1.01 | 1.01 | 1.03 | 1.04 | 1 | 1.03 | 1.14 | 1.14 | 1.09 | 0.995 | 0.659 | 0.56 | 0.461 | 0.497 | –
2 | A549 | 0.872 | 0.722 | 0.846 | 0.845 | 0.665 | 0.706 | 0.718 | 0.666 | 0.63 | 0.92 | 0.886 | 0.843 | 0.845 | – | – | – | – | 1.08
3 | A-427 | 0.687 | 1.16 | 1.11 | 1.06 | 0.925 | 0.966 | 0.978 | 0.828 | 0.846 | 0.978 | 1.1 | 0.981 | 0.991 | 0.845 | 0.71 | 0.664 | 0.826 | 1.23
4 | ABC-1 | 1.37 | 0.968 | 0.851 | 0.914 | 1.37 | 1.27 | 0.867 | 1.11 | 0.608 | 1.04 | 1.01 | 0.813 | 1.08 | 0.675 | 0.624 | 0.496 | 0.61 | 1.28
5 | BEN | 1.11 | 0.948 | 0.903 | 1.08 | 0.962 | 1.11 | 0.758 | 0.714 | 0.885 | 0.615 | 0.7 | 0.686 | 0.683 | 0.351 | 0.351 | 0.323 | 0.42 | 0.467
6 | CAL-12T | 1.21 | 1.19 | 1 | 1.39 | 0.8 | 0.653 | 0.546 | 0.738 | 0.84 | 1.15 | 1.05 | 1.05 | 1.07 | 0.507 | 0.326 | 0.402 | 0.337 | 1.05
7 | COR-L23 | 0.804 | 0.714 | 0.685 | 0.752 | 0.612 | 0.724 | 0.56 | 0.662 | 0.604 | 0.835 | 0.903 | 1.02 | 1 | 0.476 | 0.481 | 0.385 | 0.502 | 1.08
8 | COR-L 105 | 1.01 | 1.06 | 0.967 | 0.981 | 0.692 | 1.05 | 0.731 | 0.731 | 0.875 | 1.01 | 1.04 | 1.03 | 1.16 | 0.308 | 0.407 | 0.455 | 0.501 | 1
9 | Calu-6 | 0.986 | 0.931 | 0.932 | 1.11 | 0.758 | 0.814 | 0.868 | 0.756 | 0.786 | 0.85 | 0.866 | 0.824 | 0.942 | – | – | – | – | 0.86
10 | ChaGo-K-1 | – | – | – | – | 1.05 | 1.14 | 1.13 | 1.05 | 1.19 | 0.802 | 0.852 | 0.911 | 0.896 | 0.641 | 0.523 | 0.507 | 0.726 | 0.849
11 | EBC-1 | 1.05 | 0.805 | 0.814 | 0.953 | 0.161 | 0.194 | 0.223 | 0.159 | 0.197 | 0.106 | 0.0934 | 0.102 | 0.0999 | – | – | – | – | 0.0912
12 | EKVX | 0.891 | 0.794 | 0.513 | 0.597 | 0.845 | 0.929 | 1.03 | 0.667 | 0.795 | 0.85 | 0.723 | 0.797 | 0.75 | 0.604 | 0.586 | 0.31 | 0.41 | 0.809
13 | EMC-BAC-2 | 0.801 | 0.778 | 0.713 | 0.772 | 0.773 | 0.846 | 0.696 | 0.738 | 0.759 | 1.06 | 0.952 | 0.973 | 1.01 | 0.301 | 0.366 | 0.331 | 0.394 | 1.02
14 | EPLC-272H | 1.08 | 0.802 | 0.877 | 0.831 | 0.962 | 1.09 | 0.892 | 0.802 | 0.904 | 0.657 | 0.675 | 0.632 | 0.738 | 0.369 | – | 0.346 | 0.434 | 0.711
15 | H3255 | 0.691 | 0.673 | 0.649 | 0.734 | 0.805 | 0.983 | 0.804 | 0.598 | 0.782 | 0.833 | 0.891 | 0.875 | 0.777 | 0.397 | 0.34 | 0.483 | 0.788 | 0.826
16 | HARA | 0.879 | 0.816 | 0.594 | 0.847 | 0.976 | 1.01 | 1.05 | 1.03 | 1.02 | 0.848 | 0.864 | 0.833 | 0.876 | 0.293 | 0.403 | 0.291 | 0.328 | 1.01
17 | HCC-15 | 0.907 | 0.923 | 0.883 | 0.853 | 0.764 | 0.868 | 0.758 | 0.748 | 0.726 | 0.995 | 1.05 | 0.903 | 0.92 | 0.594 | 0.574 | 0.617 | 0.565 | 1.04
18 | HCC-44 | 0.829 | 0.708 | 0.702 | 0.735 | 0.778 | 0.803 | 0.773 | 0.786 | 0.758 | – | – | – | – | – | – | – | – | –
19 | HCC-78 | 0.395 | 0.21 | 0.294 | 0.365 | 0.344 | 0.353 | 0.324 | 0.297 | 0.322 | 0.515 | 0.539 | 0.532 | 0.527 | 0.502 | 0.276 | 0.424 | 0.306 | 0.523
